# Test results: DBAASP
# Key:
# Assay in all cases: ≥ marks a high value that may be exact or a test limit, other limits are often not marked, values filed in µg/mL are converted to µM
# [1] = tested on: Klebsiella pneumoniae ATCC 700603
# [2] = tested on: Escherichia coli ATCC 25922
# Acinetobacter baumannii = tested on: Acinetobacter baumannii
# [3] = tested on: Staphylococcus aureus ATCC 25923
# [4] = tested on: Pseudomonas aeruginosa ATCC 9027
# [5] = tested on: Staphylococcus aureus ATCC 2592
# Bacillus subtilis = tested on: Bacillus subtilis
# [6] = tested on: Candida albicans ATCC 2002
# [7] = tested on: Pseudomonas aeruginosa CMCCB 10104
# [8] = tested on: Staphylococcus epidermidis ATCC 12228
# Escherichia coli UB1005 = tested on: Escherichia coli UB1005
# Staphylococcus aureus = tested on: Staphylococcus aureus
# [9] = tested on: Salmonella enterica subsp. enterica serovar Typhimurium C77-31
# Escherichia coli = tested on: Escherichia coli
# Pseudomonas aeruginosa = tested on: Pseudomonas aeruginosa
# [10] = tested on: Staphylococcus aureus ATCC 29213
Structure (SMILES),MIC [2],MIC [3],MIC [6],MIC [7],also measured
CC[C@H](C)[C@H](N)C(=O)N1CCC[C@H]1C(=O)N[C@@H](CC(C)C)C(=O)N[C@@H](CC(C)C)C(=O)N[C@@H](CCCN=C(N)N)C(=O)N[C@@H](CCCCN)C(=O)NCC(=O)N[C@@H](CCCCN)C(=O)N[C@@H](CCCCN)C(=O)N[C@H](C(=O)N[C@H](C(=O)N[C@@H](Cc1c[nH]c2ccccc12)C(=O)N[C@@H](Cc1c[nH]c2ccccc12)C(=O)O)[C@@H](C)CC)[C@@H](C)CC [IPLLRKGKKIIWW],> 64 µM,> 64 µM,,,MIC [1]: > 64 µM; MIC (Acinetobacter baumannii): ≥ 64 µM; MIC [4]: 64 µM
CC[C@H](C)[C@@H]1NC(=O)[C@H](CCCCN)NC(=O)[C@@H](NC(=O)[C@H](CCCCN)NC(=O)[C@H](CC(C)C)NC(=O)[C@@H](NC(=O)[C@H](CC(=O)O)NC(=O)[C@H](CC(C)C)NC(=O)[C@H](CC(C)C)NC(=O)[C@H](CCC(N)=O)NC(=O)CNC(=O)[C@H](C)NC(=O)[C@@H](NC(=O)[C@H](CCCCN)NC(=O)[C@H](CCCCN)NC(=O)[C@H](CC(C)C)NC(=O)CNC(=O)[C@H](CCC(=O)O)NC(=O)[C@H](CCCCN)NC(=O)[C@@H](NC(=O)[C@H](CO)NC(=O)[C@H](CC(=O)O)NC(=O)[C@H](CC(C)C)NC(=O)[C@H](CC(C)C)NC(=O)CN)C(C)C)C(C)C)[C@@H](C)O)CSSC[C@@H](C(=O)N[C@H](C(=O)N2CCC[C@H]2C(=O)N[C@@H](C)C(=O)O)[C@@H](C)O)NC(=O)CNC(=O)[C@H](CO)NC1=O [GLLDSVKEGLKKVAGQLLDTLKCKISGCTPA],1.98 µM,,3.92 µM,,MIC [5]: 1.98 µM; MIC (Bacillus subtilis): 7.84 µM
CC[C@H](C)[C@H](NC(=O)[C@H](CCCN=C(N)N)NC(=O)[C@H](Cc1c[nH]c2ccccc12)NC(=O)[C@H](CCCN=C(N)N)NC(=O)[C@@H](NC(=O)[C@H](CCCCN)NC(=O)[C@H](Cc1c[nH]c2ccccc12)NC(=O)[C@H](CCCN=C(N)N)NC(=O)[C@@H](NC(=O)[C@H](CCCN=C(N)N)NC(=O)[C@@H](N)Cc1c[nH]c2ccccc12)[C@@H](C)CC)[C@@H](C)O)C(=O)N[C@@H](CCCCN)C(N)=O [WRIRWKTRWRIK],4 µM,2 µM,,,MIC [8]: 2 µM; MIC (Escherichia coli UB1005): 2 µM; MIC (Staphylococcus aureus): 2 µM; MIC [9]: 2 µM; MIC (Acinetobacter baumannii): 2 µM; MIC (Escherichia coli): 2 µM; MIC (Pseudomonas aeruginosa): 8 µM; MIC [10]: 2 µM
CC[C@H](C)[C@H](NC(=O)[C@@H]1CCCN1C(=O)[C@@H](NC(=O)[C@@H](N)C(C)C)[C@@H](C)CC)C(=O)N[C@H](C(=O)N[C@@H](CO)C(=O)NCC(=O)N[C@@H](CC(C)C)C(=O)N[C@@H](CC(C)C)C(=O)N[C@@H](CO)C(=O)N[C@@H](CO)C(=O)N[C@@H](CC(C)C)C(=O)N[C@@H](CC(C)C)C(N)=O)C(C)C [VIPIVSGLLSSLL],9.54 µM,,,,MIC [5]: 4.77 µM
CC[C@H](C)[C@H](NC(=O)[C@H](Cc1ccccc1)NC(=O)[C@H](CO)NC(=O)[C@H](CCCCN)NC(=O)[C@H](CC(C)C)NC(=O)[C@H](CCCCN)NC(=O)[C@H](CCCCN)NC(=O)[C@H](CC(C)C)NC(=O)[C@@H](NC(=O)[C@@H](NC(=O)[C@@H](N)Cc1ccccc1)[C@@H](C)O)[C@@H](C)CC)C(=O)N[C@@H](CCCCN)C(=O)O [FTILKKLKSFIK],> 64 µM,> 64 µM,,,MIC [1]: > 64 µM; MIC (Acinetobacter baumannii): ≥ 64 µM; MIC [4]: 32 µM

# More lines, main results first:
MIC [2],MIC [3],MIC [6],MIC [7],Structure (SMILES),also measured
3.61 µM,3.61 µM,3.61 µM,1.79 µM,CC[C@H](C)[C@H](NC(=O)[C@@H](NC(=O)[C@H](CC(=O)O)NC(=O)[C@H](CC(C)C)NC(=O)[C@H](CC(C)C)NC(=O)CN)[C@@H](C)O)C(=O)N[C@@H](CCCCN)C(=O)N[C@@H](CC(N)=O)C(=O)N[C@@H](CCSC)C(=O)N[C@@H](C)C(=O)N[C@@H](CC(C)C)C(=O)N[C@@H](CC(N)=O)C(=O)N[C@@H](C)C(=O)N[C@@H](C)C(=O)N[C@@H](CCCCN)C(=O)N[C@@H](CO)C(=O)N[C@@H](C)C(=O)NCC(=O)N[C@H](C(=O)N[C@@H](CO)C(=O)N[C@H](C(=O)N[C@@H](CC(C)C)C(=O)N[C@@H](CC(N)=O)C(=O)N[C@@H](CO)C(=O)N[C@@H](CC(C)C)C(=O)N[C@@H](CO)C(=O)N[C@H]1CSSC[C@@H](C(=O)O)NC(=O)[C@H]([C@@H](C)O)NC(=O)[C@H](CCCCN)NC(=O)[C@H](CO)NC(=O)[C@H](CC(C)C)NC(=O)[C@H](CCCCN)NC1=O)C(C)C)C(C)C [GLLDTIKNMALNAAKSAGVSVLNSLSCKLSKTC],
> 111 µM,> 111 µM,≥ 111 µM,≥ 111 µM,CC(C)[C@H](N)C(=O)N[C@H](C(=O)N[C@@H](CCCCN)C(=O)N[C@@H](Cc1ccccc1)C(=O)N[C@@H](CO)C(=O)N[C@@H](Cc1ccc(O)cc1)C(=O)N[C@@H](CCCN=C(N)N)C(=O)N[C@@H](CCCCN)C(=O)NCC(=O)N[C@@H](CO)C(=O)N1CCC[C@H]1C(=O)N[C@@H](C)C(=O)N1CCC[C@H]1C(=O)N[C@@H](CCC(N)=O)C(=O)N[C@@H](CCCCN)C(=O)N[C@@H](CC(N)=O)C(=O)O)C(C)C [VVKFSYRKGSPAPQKN],
5.92 µM,5.92 µM,2.96 µM,11.8 µM,CC[C@H](C)[C@H](N)C(=O)N[C@@H](CC(C)C)C(=O)N1CCC[C@H]1C(=O)N[C@@H](Cc1ccccc1)C(=O)N[C@H](C(=O)N[C@@H](C)C(=O)NCC(=O)N[C@H](C(=O)N[C@@H](C)C(=O)N[C@@H](C)C(=O)N[C@@H](CCC(=O)O)C(=O)N[C@@H](CCSC)C(=O)N[C@@H](CCSC)C(=O)N[C@@H](CCCCN)C(=O)N[C@@H](Cc1cnc[nH]1)C(=O)N[C@H](C(=O)N[C@@H](Cc1ccc(O)cc1)C(=O)N[C@H]1CSSC[C@@H](C(=O)O)NC(=O)[C@H](CCCCN)NC(=O)[C@H](CCCCN)NC(=O)[C@H](CO)NC(=O)[C@H](C)NC(=O)[C@H](C)NC1=O)C(C)C)C(C)C)C(C)C [ILPFVAGVAAEMMKHVYCAASKKC],
4.32 µM,8.64 µM,4.32 µM,8.64 µM,CC[C@H](C)[C@H](N)C(=O)N[C@H](C(=O)N1CCC[C@H]1C(=O)N[C@@H](Cc1ccccc1)C(=O)N[C@H](C(=O)N[C@@H](C)C(=O)NCC(=O)N[C@H](C(=O)N[C@@H](C)C(=O)N[C@@H](C)C(=O)N[C@@H](CCC(=O)O)C(=O)N[C@@H](CCSC)C(=O)N[C@@H](CCSC)C(=O)N[C@@H](CCC(=O)O)C(=O)N[C@@H](Cc1cnc[nH]1)C(=O)N[C@H](C(=O)N[C@@H](Cc1ccc(O)cc1)C(=O)N[C@H]1CSSC[C@@H](C(=O)O)NC(=O)[C@H](CCCCN)NC(=O)[C@H](CCCCN)NC(=O)[C@H](CO)NC(=O)[C@H](C)NC(=O)[C@H](C)NC1=O)C(C)C)C(C)C)C(C)C)[C@@H](C)CC [IIPFVAGVAAEMMEHVYCAASKKC],
3.54 µM,7.08 µM,7.08 µM,7.08 µM,CC[C@H](C)[C@H](N)C(=O)N[C@@H](CC(=O)O)C(=O)N1CCC[C@H]1C(=O)N[C@@H](Cc1ccccc1)C(=O)N[C@H](C(=O)N[C@@H](C)C(=O)NCC(=O)N[C@H](C(=O)N[C@@H](C)C(=O)N[C@@H](C)C(=O)N[C@@H](CCC(=O)O)C(=O)N[C@@H](CCSC)C(=O)N[C@@H](CCSC)C(=O)N[C@@H](CCC(N)=O)C(=O)N[C@@H](Cc1cnc[nH]1)C(=O)N[C@H](C(=O)N[C@@H](Cc1ccc(O)cc1)C(=O)N[C@H]1CSSC[C@@H](C(=O)O)NC(=O)[C@H](CCCCN)NC(=O)[C@H](CCCCN)NC(=O)[C@H](CO)NC(=O)[C@H](C)NC(=O)[C@H](C)NC1=O)C(C)C)C(C)C)C(C)C [IDPFVAGVAAEMMQHVYCAASKKC],
3.59 µM,3.59 µM,1.78 µM,3.59 µM,CC[C@H](C)[C@H](NC(=O)CN)C(=O)N[C@@H](CC(C)C)C(=O)N[C@@H](CC(=O)O)C(=O)N[C@H](C(=O)N[C@@H](Cc1ccccc1)C(=O)N[C@@H](CCCCN)C(=O)N[C@@H](CC(N)=O)C(=O)N[C@@H](CCSC)C(=O)N[C@@H](C)C(=O)N[C@@H](CC(C)C)C(=O)N[C@@H](CC(N)=O)C(=O)N[C@@H](C)C(=O)N[C@@H](C)C(=O)N[C@@H](CCCCN)C(=O)N[C@@H](CO)C(=O)N[C@@H](C)C(=O)NCC(=O)N[C@H](C(=O)N[C@@H](CO)C(=O)N[C@H](C(=O)N[C@@H](CC(C)C)C(=O)N[C@@H](CC(N)=O)C(=O)N[C@@H](C)C(=O)N[C@@H](CC(C)C)C(=O)N[C@@H](CO)C(=O)N[C@H]1CSSC[C@@H](C(=O)O)NC(=O)[C@H]([C@@H](C)O)NC(=O)[C@H](CCCCN)NC(=O)[C@H](CO)NC(=O)[C@H](CC(C)C)NC(=O)[C@H](CCCCN)NC1=O)C(C)C)C(C)C)[C@@H](C)O [GILDTFKNMALNAAKSAGVSVLNALSCKLSKTC],
